pKi: −log10 of the molar value.
How the values were obtained:
Carbonic anhydrase 14 = Carbonic anhydrase 14 (Homo sapiens, UniProt Q9ULX7); assay: Inhibition of human recombinant full length CA14
Carbonic anhydrase 12 = Carbonic anhydrase 12 (Homo sapiens, UniProt O43570); assay: Inhibition of human recombinant catalytic domain CA12
Carbonic anhydrase 9 = Carbonic anhydrase 9 (Homo sapiens, UniProt Q16790); assay: Inhibition of human recombinant catalytic domain CA9

Chain of Carbonic anhydrase 14 (Q9ULX7 whole entry, the tested form may be a part): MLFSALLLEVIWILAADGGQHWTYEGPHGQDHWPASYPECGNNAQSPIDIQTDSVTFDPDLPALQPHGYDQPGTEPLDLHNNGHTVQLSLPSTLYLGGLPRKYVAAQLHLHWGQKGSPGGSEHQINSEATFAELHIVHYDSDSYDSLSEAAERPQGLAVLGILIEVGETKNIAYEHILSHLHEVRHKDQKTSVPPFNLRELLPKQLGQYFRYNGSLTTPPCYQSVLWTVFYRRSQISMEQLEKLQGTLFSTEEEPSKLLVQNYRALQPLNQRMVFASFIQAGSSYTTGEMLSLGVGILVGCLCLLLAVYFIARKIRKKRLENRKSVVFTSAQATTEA
Chain of Carbonic anhydrase 12 (O43570 whole entry, the tested form may be a part): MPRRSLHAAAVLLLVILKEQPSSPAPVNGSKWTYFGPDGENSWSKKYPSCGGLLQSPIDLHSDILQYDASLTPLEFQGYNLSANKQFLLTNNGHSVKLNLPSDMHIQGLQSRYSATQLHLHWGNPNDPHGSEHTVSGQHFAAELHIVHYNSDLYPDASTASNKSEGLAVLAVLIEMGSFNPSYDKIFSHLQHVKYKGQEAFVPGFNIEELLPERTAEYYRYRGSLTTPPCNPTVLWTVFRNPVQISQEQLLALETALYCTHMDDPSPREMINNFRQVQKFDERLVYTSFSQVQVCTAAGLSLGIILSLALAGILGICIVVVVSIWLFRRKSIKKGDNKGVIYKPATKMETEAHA

pKi (Carbonic anhydrase 14) | pKi (Carbonic anhydrase 12) | pKi (Carbonic anhydrase 9) | Compound
4.04 | 3.10 |  | OB(O)c1ccccc1 [PHENYLBORONIC ACID]
2.96 | 3.15 | 4.04 | NS(=O)(=O)O [SULFAMATE]
3.12 | 3.08 |  | NS(N)(=O)=O [SULFAMIDE]

Source: ChEMBL document CHEMBL1140609, “Carbonic anhydrase inhibitors. Inhibition of transmembrane isozymes XII (cancer-associated) and XIV with anions” (Bioorg Med Chem Lett, 2007)
